Reference: ChEMBL document CHEMBL1133572, “Protease inhibitors: current status and future prospects” (J Med Chem, 2000)
≈ marks a conversion by molar mass, not a printed value. Residues, ends and D or L forms follow the SMILES beside them. *: point of attachment. Cbz = O=C(OCc1ccccc1)*; CHN2 = [N-]=[N+]=C*

How the values were obtained:
[1] = Oral bioavailability in human; format: ADME, organism-based; details: in vivo
[2] = Oral bioavailability in dog; format: ADME, organism-based, Canis lupus familiaris; details: in vivo
Serine protease 1 [3] = target: T1, Serine protease 1 (Homo sapiens, UniProt P07477)
[4] = Inhibitory concentration against Chymotrypsinogen
[5] = Inhibitory concentration against Elastase
Plasminogen = Plasminogen (Rattus norvegicus, UniProt Q01177); assay: Inhibitory concentration against Plasmin
Serine protease 1 [6] = target: T1, Serine protease 1; assay: Inhibitory concentration against Trypsin
Cathepsin B [7] = target: T2, Cathepsin B (Homo sapiens, UniProt P07858)
Procathepsin L [8] = target: T3, Procathepsin L (Homo sapiens, UniProt P07711)
[9] = target: T4, Angiotensin-converting enzyme (Homo sapiens, UniProt P12821)
Procathepsin L [10] = target: T3, Procathepsin L; assay: Inhibitory activity against cathepsin L, lysosomal cysteine protease
[11] = The irreversible inhibitor activity by second order rate equation.; format: ADME
[12] = target: 72 kDa type IV collagenase (Homo sapiens, UniProt P08253)
Cathepsin S = Cathepsin S (Homo sapiens, UniProt P25774); assay: The apparent binding affinity against cathepsin S.; details: read-out: Ki app
Cathepsin K = Cathepsin K (Homo sapiens, UniProt P43235); assay: The apparent binding affinity against cathepsin K.; details: read-out: Ki app
Matrilysin = Matrilysin (Homo sapiens, UniProt P09237); assay: Inhibition of matrix metalloprotease-7 (MMP-7).
Stromelysin-1 = Stromelysin-1 (Homo sapiens, UniProt P08254)
Interstitial collagenase = target: T5, Interstitial collagenase (Homo sapiens, UniProt P03956)
T5 sequence (P03956 whole entry): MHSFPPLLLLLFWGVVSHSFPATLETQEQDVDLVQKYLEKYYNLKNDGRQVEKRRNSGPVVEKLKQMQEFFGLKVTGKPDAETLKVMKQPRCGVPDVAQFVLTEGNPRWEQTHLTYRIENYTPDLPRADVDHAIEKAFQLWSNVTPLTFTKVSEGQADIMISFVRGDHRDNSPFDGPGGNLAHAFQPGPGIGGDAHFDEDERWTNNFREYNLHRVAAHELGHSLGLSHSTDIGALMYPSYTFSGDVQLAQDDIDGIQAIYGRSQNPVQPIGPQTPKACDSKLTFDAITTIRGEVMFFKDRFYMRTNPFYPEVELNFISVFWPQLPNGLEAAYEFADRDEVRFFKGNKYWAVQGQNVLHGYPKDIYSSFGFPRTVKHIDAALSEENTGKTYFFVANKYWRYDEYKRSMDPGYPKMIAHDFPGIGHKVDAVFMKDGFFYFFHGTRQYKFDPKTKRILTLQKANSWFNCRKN

[13] = target: T4, Angiotensin-converting enzyme; assay: oral activity against angiotensin -converting enzyme ( ACE) and neutral endopeptidase in mouse.
Neprilysin = target: T6, Neprilysin (Rattus norvegicus, UniProt P07861)
T6 sequence (P07861 whole entry): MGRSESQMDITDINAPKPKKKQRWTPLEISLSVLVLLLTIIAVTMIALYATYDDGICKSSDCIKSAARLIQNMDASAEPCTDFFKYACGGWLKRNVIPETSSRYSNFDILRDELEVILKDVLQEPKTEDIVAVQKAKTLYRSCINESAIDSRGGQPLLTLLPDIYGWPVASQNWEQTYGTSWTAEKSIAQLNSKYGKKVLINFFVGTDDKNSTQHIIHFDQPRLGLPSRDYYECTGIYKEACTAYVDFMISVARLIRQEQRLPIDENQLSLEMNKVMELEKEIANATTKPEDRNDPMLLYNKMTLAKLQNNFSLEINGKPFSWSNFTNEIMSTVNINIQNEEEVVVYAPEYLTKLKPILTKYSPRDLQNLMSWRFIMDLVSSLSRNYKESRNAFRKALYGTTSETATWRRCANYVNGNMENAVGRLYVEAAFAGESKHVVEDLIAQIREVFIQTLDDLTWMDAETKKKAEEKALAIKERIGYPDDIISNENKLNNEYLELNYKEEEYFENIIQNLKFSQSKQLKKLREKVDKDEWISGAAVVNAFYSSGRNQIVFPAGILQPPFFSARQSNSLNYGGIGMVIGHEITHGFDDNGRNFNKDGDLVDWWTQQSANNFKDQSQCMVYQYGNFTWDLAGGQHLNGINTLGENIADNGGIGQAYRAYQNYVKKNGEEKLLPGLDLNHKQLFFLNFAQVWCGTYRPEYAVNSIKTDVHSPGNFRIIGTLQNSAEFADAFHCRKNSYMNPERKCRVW

Cathepsin B [14] = target: T2, Cathepsin B; assay: Inhibitory activity against cathepsin B (ip); format: organism-based
Cathepsin B [15] = target: T2, Cathepsin B; assay: Inhibitory activity against cathepsin B (po); format: organism-based
Cathepsin B [16] = target: T2, Cathepsin B; assay: Inhibitory activity against cathepsin B (sc); format: organism-based

T3 sequence (P07711 whole entry): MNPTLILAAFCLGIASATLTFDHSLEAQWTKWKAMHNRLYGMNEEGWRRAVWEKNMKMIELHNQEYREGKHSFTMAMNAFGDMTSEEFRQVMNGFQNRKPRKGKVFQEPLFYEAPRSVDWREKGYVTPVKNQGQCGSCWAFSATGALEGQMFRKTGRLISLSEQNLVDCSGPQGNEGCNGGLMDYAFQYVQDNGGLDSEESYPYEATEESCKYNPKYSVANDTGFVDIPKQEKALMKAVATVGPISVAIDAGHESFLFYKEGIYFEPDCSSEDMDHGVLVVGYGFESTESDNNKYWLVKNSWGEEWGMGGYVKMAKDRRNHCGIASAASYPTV
T1 sequence (P07477 whole entry): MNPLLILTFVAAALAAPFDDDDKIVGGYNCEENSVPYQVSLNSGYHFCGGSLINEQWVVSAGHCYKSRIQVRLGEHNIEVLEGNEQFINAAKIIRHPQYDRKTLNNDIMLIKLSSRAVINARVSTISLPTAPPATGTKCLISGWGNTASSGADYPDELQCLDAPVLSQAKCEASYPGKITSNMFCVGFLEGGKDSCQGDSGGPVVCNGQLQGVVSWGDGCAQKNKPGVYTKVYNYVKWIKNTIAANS
T4 sequence (P12821 whole entry): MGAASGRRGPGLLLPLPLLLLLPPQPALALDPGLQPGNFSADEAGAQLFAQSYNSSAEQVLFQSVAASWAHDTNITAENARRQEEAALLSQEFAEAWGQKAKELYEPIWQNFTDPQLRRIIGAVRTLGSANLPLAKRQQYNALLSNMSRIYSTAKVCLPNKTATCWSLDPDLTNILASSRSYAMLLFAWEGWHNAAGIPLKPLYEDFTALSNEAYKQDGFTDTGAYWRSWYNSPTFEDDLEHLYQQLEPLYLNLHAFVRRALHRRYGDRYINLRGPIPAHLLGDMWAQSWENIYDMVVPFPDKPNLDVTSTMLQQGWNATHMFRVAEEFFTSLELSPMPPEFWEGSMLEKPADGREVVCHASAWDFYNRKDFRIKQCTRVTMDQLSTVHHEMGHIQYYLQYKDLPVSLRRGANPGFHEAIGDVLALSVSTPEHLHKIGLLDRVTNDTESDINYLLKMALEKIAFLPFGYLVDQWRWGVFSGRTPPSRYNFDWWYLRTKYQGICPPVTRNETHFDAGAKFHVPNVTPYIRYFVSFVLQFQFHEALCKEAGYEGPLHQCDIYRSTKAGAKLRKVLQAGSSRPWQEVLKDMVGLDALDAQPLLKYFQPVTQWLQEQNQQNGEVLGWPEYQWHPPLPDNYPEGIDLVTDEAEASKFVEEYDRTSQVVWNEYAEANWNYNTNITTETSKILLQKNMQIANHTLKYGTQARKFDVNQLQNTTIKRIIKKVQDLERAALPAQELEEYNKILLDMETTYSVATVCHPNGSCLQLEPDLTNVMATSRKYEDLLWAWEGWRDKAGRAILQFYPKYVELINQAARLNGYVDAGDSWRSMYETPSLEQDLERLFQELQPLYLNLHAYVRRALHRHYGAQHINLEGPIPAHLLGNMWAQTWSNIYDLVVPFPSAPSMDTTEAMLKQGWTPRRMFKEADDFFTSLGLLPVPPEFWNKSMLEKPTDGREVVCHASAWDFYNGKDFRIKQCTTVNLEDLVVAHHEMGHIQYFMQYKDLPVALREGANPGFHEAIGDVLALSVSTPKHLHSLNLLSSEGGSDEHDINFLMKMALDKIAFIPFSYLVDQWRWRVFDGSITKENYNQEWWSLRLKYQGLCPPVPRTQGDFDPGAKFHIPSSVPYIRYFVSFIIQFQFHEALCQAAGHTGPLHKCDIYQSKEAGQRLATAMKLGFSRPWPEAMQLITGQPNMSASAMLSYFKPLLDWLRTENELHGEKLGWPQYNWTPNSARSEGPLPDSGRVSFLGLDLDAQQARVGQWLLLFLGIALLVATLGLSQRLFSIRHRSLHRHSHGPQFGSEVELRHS
Plasminogen, sequence (Q01177 97-581 limits assumed): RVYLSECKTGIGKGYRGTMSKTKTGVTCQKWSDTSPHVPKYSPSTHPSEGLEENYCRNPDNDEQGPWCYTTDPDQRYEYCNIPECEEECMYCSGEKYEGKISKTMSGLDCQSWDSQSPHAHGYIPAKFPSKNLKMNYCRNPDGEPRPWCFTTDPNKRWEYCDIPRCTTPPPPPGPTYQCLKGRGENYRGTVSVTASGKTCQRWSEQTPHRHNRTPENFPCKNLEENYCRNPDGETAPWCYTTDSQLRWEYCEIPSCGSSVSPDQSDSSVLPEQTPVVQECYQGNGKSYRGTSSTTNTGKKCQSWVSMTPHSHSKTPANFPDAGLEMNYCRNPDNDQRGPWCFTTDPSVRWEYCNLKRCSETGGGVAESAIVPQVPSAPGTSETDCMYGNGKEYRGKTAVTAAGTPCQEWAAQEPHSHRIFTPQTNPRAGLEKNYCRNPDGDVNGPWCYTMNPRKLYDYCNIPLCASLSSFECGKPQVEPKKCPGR
Plasminogen, sequence (Q01177 582-812 limits assumed): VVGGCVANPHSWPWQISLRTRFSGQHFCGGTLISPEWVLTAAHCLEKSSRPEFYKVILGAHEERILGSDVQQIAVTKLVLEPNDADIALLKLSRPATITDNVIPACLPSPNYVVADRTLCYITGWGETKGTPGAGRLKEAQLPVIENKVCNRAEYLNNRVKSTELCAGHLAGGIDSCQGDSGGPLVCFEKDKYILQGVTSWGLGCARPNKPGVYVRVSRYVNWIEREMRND
Stromelysin-1, sequence (P08254 whole entry): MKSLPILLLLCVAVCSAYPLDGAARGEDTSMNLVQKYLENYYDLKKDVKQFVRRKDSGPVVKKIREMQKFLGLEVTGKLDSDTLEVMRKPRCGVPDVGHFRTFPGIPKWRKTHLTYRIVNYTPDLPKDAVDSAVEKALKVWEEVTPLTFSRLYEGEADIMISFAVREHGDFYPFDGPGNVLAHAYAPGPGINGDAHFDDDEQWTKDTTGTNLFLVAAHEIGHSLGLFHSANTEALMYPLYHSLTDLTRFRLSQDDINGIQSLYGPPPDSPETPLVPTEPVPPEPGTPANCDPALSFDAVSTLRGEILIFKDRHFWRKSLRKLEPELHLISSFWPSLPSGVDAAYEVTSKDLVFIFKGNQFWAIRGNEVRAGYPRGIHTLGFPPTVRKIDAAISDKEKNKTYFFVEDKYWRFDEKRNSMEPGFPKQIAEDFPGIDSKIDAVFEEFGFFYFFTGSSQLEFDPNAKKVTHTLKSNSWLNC
72 kDa type IV collagenase, sequence (P08253 whole entry): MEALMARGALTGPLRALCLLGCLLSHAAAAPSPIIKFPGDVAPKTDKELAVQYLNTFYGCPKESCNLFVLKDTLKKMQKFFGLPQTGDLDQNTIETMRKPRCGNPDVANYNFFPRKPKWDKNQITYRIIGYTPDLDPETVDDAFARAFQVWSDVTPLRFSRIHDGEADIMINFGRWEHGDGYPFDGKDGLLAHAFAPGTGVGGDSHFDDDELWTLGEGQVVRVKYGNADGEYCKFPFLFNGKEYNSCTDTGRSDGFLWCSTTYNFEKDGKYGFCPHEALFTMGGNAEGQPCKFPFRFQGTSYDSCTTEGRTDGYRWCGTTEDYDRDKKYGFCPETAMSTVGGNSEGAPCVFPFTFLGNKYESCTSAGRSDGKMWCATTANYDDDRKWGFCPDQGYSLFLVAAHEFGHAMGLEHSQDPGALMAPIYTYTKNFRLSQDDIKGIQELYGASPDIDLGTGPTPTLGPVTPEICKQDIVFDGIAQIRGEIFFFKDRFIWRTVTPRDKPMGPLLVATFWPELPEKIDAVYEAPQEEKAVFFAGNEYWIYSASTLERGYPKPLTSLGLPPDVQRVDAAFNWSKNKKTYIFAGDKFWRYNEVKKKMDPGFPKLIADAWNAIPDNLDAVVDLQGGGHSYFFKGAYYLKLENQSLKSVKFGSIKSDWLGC
Cathepsin K, sequence (P43235 whole entry): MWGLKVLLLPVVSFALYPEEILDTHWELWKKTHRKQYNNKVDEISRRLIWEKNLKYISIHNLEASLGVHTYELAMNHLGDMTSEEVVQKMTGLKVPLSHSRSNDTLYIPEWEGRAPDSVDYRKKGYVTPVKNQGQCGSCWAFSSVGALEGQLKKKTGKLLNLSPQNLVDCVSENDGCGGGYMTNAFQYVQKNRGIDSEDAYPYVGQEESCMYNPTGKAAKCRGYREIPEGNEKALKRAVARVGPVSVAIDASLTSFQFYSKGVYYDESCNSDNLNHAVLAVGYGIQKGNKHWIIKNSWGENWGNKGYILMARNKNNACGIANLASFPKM
Matrilysin, sequence (P09237 whole entry): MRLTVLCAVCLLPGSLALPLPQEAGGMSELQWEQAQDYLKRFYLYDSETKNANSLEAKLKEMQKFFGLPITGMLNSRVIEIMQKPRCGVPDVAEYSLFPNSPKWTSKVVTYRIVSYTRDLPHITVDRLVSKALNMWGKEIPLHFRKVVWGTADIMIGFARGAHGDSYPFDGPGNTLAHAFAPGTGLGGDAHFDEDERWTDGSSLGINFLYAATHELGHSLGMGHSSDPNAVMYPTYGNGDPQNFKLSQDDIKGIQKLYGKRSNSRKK
Cathepsin S, sequence (P25774 whole entry): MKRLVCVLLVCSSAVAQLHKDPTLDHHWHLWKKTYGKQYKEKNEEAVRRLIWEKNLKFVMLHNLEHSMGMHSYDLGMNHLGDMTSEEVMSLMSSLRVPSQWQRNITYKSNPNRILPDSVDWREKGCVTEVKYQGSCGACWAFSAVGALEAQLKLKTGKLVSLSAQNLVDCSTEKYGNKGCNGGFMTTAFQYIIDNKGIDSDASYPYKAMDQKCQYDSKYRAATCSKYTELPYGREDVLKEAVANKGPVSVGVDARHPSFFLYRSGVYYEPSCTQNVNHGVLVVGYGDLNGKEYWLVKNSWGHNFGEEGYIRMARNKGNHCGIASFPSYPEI

## CCCCNC(=O)[C@@H](C[C@H](O)[C@H](CC1CCCCC1)NC(=O)[C@H](Cc1c[nH]cn1)NC(=O)[C@H](Cc1ccccc1)CS(=O)(=O)C(C)(C)C)C(C)C
[1]
  bioavailability: < 1%

## CC1=CCN(C(=O)[C@H](Cc2ccc(C(=N)N)cc2)NS(=O)(=O)c2ccc3c(c2)CN(C)CC3)[C@@H](C(=O)O)C1
[2]
  bioavailability: 45%
Serine protease 1 [3]
  Ki: 0.46 nM

## CC(=O)OCCC/C(=C1/SC(=S)N(CC(=O)O)C1=O)c1ccc(Br)cc1
[4]
  IC50: 15.6 µg/mL (≈ 34 µM)
[5]
  IC50: > 50 µg/mL
Plasminogen
  IC50: > 109000 nM
Serine protease 1 [6]
  IC50: 39900 nM

## CC(C)C[C@H](NC(=O)OCc1ccccc1)C(=O)NC1CCN(S(=O)(=O)c2ccc(Oc3ccccc3)cc2)CC1=O (some centres not stated)
Cathepsin B [7]
  Ki: > 1000 nM
Procathepsin L [8]
  Ki: > 1000 nM

## CCOC(=O)[C@H](CCc1ccccc1)N[C@@H](C)C(=O)N1[C@H](C(=O)O)C[C@@H]2CCC[C@@H]21
[9]
  IC50: 4 nM

## [N-]=[N+]=CC(=O)[C@H](Cc1ccccc1)NC(=O)[C@H](Cc1ccccc1)NC(=O)OCc1ccccc1 (Cbz-Phe-Phe-CHN2)
Procathepsin L [10]
  IC50: 50 nM

## C[C@H](CSC(=O)c1ccccc1)C(=O)N1C[C@@H](Sc2ccccc2)C[C@H]1C(=O)O [ZOFENOPRIL]
[9]
  IC50: 0.4 nM

## CC(C)C[C@H](NC(=O)N1CCNCC1)C(=O)N[C@H](C/C=C/S(=O)(=O)c1ccccc1)CCc1ccccc1
[11]
  K second: 5.7 M⁻¹ s⁻¹

## CC(/C=C/C=C/c1ccccc1)=C1/SC(=S)N(CC(=O)O)C1=O
[4]
  IC50: 10.8 µg/mL (≈ 31.3 µM)
[5]
  IC50: 21.6 µg/mL (≈ 62.5 µM)
Plasminogen
  IC50: > 145000 nM
Serine protease 1 [6]
  IC50: 36500 nM

## CNC(=O)[C@@H](Cc1c(F)c(F)c(F)c(F)c1F)NC(=O)Nc1nnc(S)s1
[12]
  Ki: 3000 nM

## CC(C)C[C@H](C(=O)NCC(=O)CNS(=O)(=O)c1ccc(Oc2ccccc2)cc1)c1cccc(-c2ccccc2)c1
Cathepsin S
  Ki: 910 nM
Cathepsin K
  Ki: 1.4 nM
Cathepsin B [7]
  Ki: > 10000 nM
Procathepsin L [8]
  Ki: > 1000 nM

## O=C(NO)C1(CS(=O)(=O)c2ccc(Oc3ccc(Cl)cc3)cc2)CCOCC1 [CTS-1027]
Matrilysin
  Ki: 1200 nM
Stromelysin-1
  Ki: 9.3 nM
Interstitial collagenase
  Ki: 590 nM

## CNC(=O)[C@@H](NC(=O)[C@H](CCCCOc1ccccc1)CP(=O)(O)Cc1ccc(Cc2ccccc2)cc1)C(C)(C)C
Stromelysin-1
  Ki: 30 nM
Interstitial collagenase
  Ki: > 30000 nM

## CC(=O)SC[C@@H](Cc1ccc2c(c1)OCO2)C(=O)N[C@@H](C)C(=O)OCc1ccccc1
[13]
  ED50: 0.5 mg/kg

## COCCOCC(CC1(C(=O)N[C@H]2CC[C@@H](C(=O)O)CC2)CCCC1)C(=O)Oc1ccc2c(c1)CCC2 (some centres not stated)
Neprilysin
  IC50: 28 nM

## Cc1cc(C)c(C(=O)OCC(=O)[C@H](CCCCN)NC(=O)[C@H](Cc2ccccc2)NC(=O)OCc2ccccc2)c(C)c1
Cathepsin B [14]
  ED50: 5 mg/kg
Cathepsin B [15]
  ED50: 18 mg/kg
Cathepsin B [16]
  ED50: 2.4 mg/kg
